Tested on: FSH
Assay: FSH level in blood (serum CLIA) after repeated sc PEP-1
Assay type: in vivo, SD rats
Procedure: PEP-1 (peptide of SEQ ID NO: 1), lyophilized white powder, obtained according to the method mentioned in example 1 was dissolved in 0.9% of saline, considering the correction factor of PEP-1 (purity: 94.13%, content: 92.36%, correction factor: 1.15). 50 mg/mL stock solution was further diluted into 20 mg/mL, 2 mg/mL, and 1 mg/mL with 0.9% saline, and stored at 4° C. for a week until the use.
The purpose of this example is to confirm the change of sexual hormones in blood from SD rats with 7 days repeated daily administration of SEQ ID NO: 1 peptide, PEP-1. This experiment followed the Ethics Regulation of Animal Test by KAMSI Inc. (Korea Animal Medical Science Institute). In addition, this experiment, Non-GLP experiment, referred to the MFDS (Ministry of Food and Drug Safety) notification; Agent 2013-40 (5th April 2013), Principles of Good Laboratory Practice (1997).
SPF Rats (Crlj:CD(SD)) were purchased from ORIENTBio Inc. (Mokdong-ri, Buk-myeon, Gapyeong-gun, Gyeonggi-do, Republic of Korea). 75 male (6.5 weeks old and 190˜210 g) and 75 female (6.5 weeks old and 160˜180 g) rats were monitored for 4 days, and 64 of male and female rats (each) were selected for the experiment. Raising condition is as follows; 23±3° C. of temperature, […] of relative humidity, 10˜20 times/hr of number of air changes, 12 hours (8 a.m.˜8 p.m.) of lighting with 150˜300 Lux of intensity.
64 male and female […] (mentioned above) were divided into 8 groups. Administration regimen, for example, drugs, routes, dosages, and volumes were as follows:
The detailed administration regimen is as follows; once a day, twice a day and twice a week in each experimental group. Injection initiated at 10 a.m. every day, and each rat was injected at one minute intervals. Rats in Group 9, 10, 13 and 14 were injected twice a week. Administration of high dose test agent preceded that of low dose. The volume of injection was calculated using recently measured weight of rats, and it was 5 mL/kg. Subcutaneous injection was performed as follows; assistant tilted the back of rat upward, and experimenter sterilized the back of rat with 70% alcohol, followed by subcutaneous injection of test agent with 26 G syringe.
1.4 mL of blood sample (0.7 mL of serum) was collected after measurement of weight (Day 0). Next day (1 Day), 1.4 mL of blood sample (0.7 mL of serum) was collected twice after injection of test agent (4 hrs and 8 hrs after administration of test agent). For next 6 days (Day 2˜Day 7), 1.4 mL of blood was extracted once everyday (4 hours after injection of test agent). Dose and volume of test agent of each group followed the Table 3, and injection time zone was same every day. Blood was extracted from the jugular vein, and left at room temperature for 30 minutes. Serum was separated using centrifugation (10,000 rpm for 5 minutes), and stored at −70±5° C. in Deep freezer until the use. Blood extraction from each subject was done in the same time zone every day.
A CLIA (Chemi-Luminescence Immune Assay) Kit was used to analyze Testosterone, Estradiol E2, FSH (Follicle stimulating hormone), and LH (Luteinizing hormone). Analysis was completed within 48 hrs after blood extraction (Laboratory Medicine Department, Chung-Ang University Hospital), and detailed method is as follows; One-way ANOVA was used to verify the comparison between the vehicle and PEP-1, and between different doses of PEP-1. For further analysis, Duncan test was used as parametric test and Dunnett's test as non-parametric test. p<0.05 represents the statistical significance, and all statistical analysis was carried out with SPSS 10.1.
FSH was analyzed using the samples prepared from example 2. 100 μL of serum was used for analysis. Fundamentals of analysis is Two-site sandwich immunoassay based on direct chemi-luminescent. As mentioned in example 2, CLIA (Chemi-luminescence immune assay) Kit was used, following the manufacture's protocol.

## EARPALLTSRLRFIPK (listed as Homo sapiens) [PEP-1, hormone secretion modulator / GnRH analog]
G3 Male 5 mg/kg sc 1/day x7, 7 days
  FSH level in blood: 0.10 mIU/mL
G4 Female 5 mg/kg sc 1/day x7, 4 hr
  FSH level in blood: 0.17 mIU/mL
G4 Female 5 mg/kg sc 1/day x7, 8 hr
  FSH level in blood: 0.30 mIU/mL
G4 Female 5 mg/kg sc 1/day x7, 2 days
  FSH level in blood: 0.32 mIU/mL
G4 Female 5 mg/kg sc 1/day x7, 3 days
  FSH level in blood: 0.12 mIU/mL
G4 Female 5 mg/kg sc 1/day x7, 4 days
  FSH level in blood: 0.17 mIU/mL
G4 Female 5 mg/kg sc 1/day x7, 5 days
  FSH level in blood: 0.21 mIU/mL
G4 Female 5 mg/kg sc 1/day x7, 6 days
  FSH level in blood: 0.13 mIU/mL
G4 Female 5 mg/kg sc 1/day x7, 7 days
  FSH level in blood: 0.17 mIU/mL
G4 Female 5 mg/kg sc 1/day x7, pre
  FSH level in blood: 0.20 mIU/mL
G6 Female 10 mg/kg sc 1/day x7, 4 hr
  FSH level in blood: 0.31 mIU/mL
G6 Female 10 mg/kg sc 1/day x7, 8 hr
  FSH level in blood: 0.48 mIU/mL
G6 Female 10 mg/kg sc 1/day x7, 2 days
  FSH level in blood: 0.31 mIU/mL
G6 Female 10 mg/kg sc 1/day x7, 3 days
  FSH level in blood: 0.20 mIU/mL
G6 Female 10 mg/kg sc 1/day x7, 4 days
  FSH level in blood: 0.17 mIU/mL
G6 Female 10 mg/kg sc 1/day x7, 5 days
  FSH level in blood: 0.19 mIU/mL
G6 Female 10 mg/kg sc 1/day x7, 6 days
  FSH level in blood: 0.1 mIU/mL
G6 Female 10 mg/kg sc 1/day x7, 7 days
  FSH level in blood: 0.16 mIU/mL
G6 Female 10 mg/kg sc 1/day x7, pre
  FSH level in blood: 0.31 mIU/mL
G8 Female 10 mg/kg sc 2/day x4, 4 hr
  FSH level in blood: 0.26 mIU/mL
G8 Female 10 mg/kg sc 2/day x4, 8 hr
  FSH level in blood: 0.21 mIU/mL
G8 Female 10 mg/kg sc 2/day x4, 2 days
  FSH level in blood: 0.28 mIU/mL
G8 Female 10 mg/kg sc 2/day x4, 3 days
  FSH level in blood: 0.18 mIU/mL
G8 Female 10 mg/kg sc 2/day x4, 4 days
  FSH level in blood: 0.13 mIU/mL
G8 Female 10 mg/kg sc 2/day x4, 5 days
  FSH level in blood: 0.16 mIU/mL
G8 Female 10 mg/kg sc 2/day x4, 6 days
  FSH level in blood: 0.15 mIU/mL
G8 Female 10 mg/kg sc 2/day x4, 7 days
  FSH level in blood: 0.21 mIU/mL
G8 Female 10 mg/kg sc 2/day x4, pre
  FSH level in blood: 0.26 mIU/mL
G9 Male 10 mg/kg sc 2/week x2 (days 1,7), 4 hr
  FSH level in blood: 0.29 mIU/mL
G9 Male 10 mg/kg sc 2/week x2 (days 1,7), 8 hr
  FSH level in blood: 0.28 mIU/mL
G9 Male 10 mg/kg sc 2/week x2 (days 1,7), 2 days
  FSH level in blood: 0.22 mIU/mL
G9 Male 10 mg/kg sc 2/week x2 (days 1,7), 3 days
  FSH level in blood: 0.17 mIU/mL
G9 Male 10 mg/kg sc 2/week x2 (days 1,7), 4 days
  FSH level in blood: 0.37 mIU/mL
G9 Male 10 mg/kg sc 2/week x2 (days 1,7), 5 days
  FSH level in blood: 0.25 mIU/mL
G9 Male 10 mg/kg sc 2/week x2 (days 1,7), 6 days
  FSH level in blood: 0.14 mIU/mL
G9 Male 10 mg/kg sc 2/week x2 (days 1,7), 7 days
  FSH level in blood: 0.15 mIU/mL
G9 Male 10 mg/kg sc 2/week x2 (days 1,7), pre
  FSH level in blood: 0.28 mIU/mL
G10 Female 10 mg/kg sc 2/week x2 (days 1,7), 4 hr
  FSH level in blood: 0.26 mIU/mL
G10 Female 10 mg/kg sc 2/week x2 (days 1,7), 8 hr
  FSH level in blood: 0.44 mIU/mL
G10 Female 10 mg/kg sc 2/week x2 (days 1,7), 2 days
  FSH level in blood: 0.37 mIU/mL
G10 Female 10 mg/kg sc 2/week x2 (days 1,7), 3 days
  FSH level in blood: 0.21 mIU/mL
G10 Female 10 mg/kg sc 2/week x2 (days 1,7), 4 days
  FSH level in blood: 0.18 mIU/mL
G10 Female 10 mg/kg sc 2/week x2 (days 1,7), 5 days
  FSH level in blood: 0.32 mIU/mL
G10 Female 10 mg/kg sc 2/week x2 (days 1,7), 6 days
  FSH level in blood: 0.23 mIU/mL
G10 Female 10 mg/kg sc 2/week x2 (days 1,7), 7 days
  FSH level in blood: 0.28 mIU/mL
G10 Female 10 mg/kg sc 2/week x2 (days 1,7), pre
  FSH level in blood: 0.31 mIU/mL
G11 Male 100 mg/kg sc 1/day x7, 4 hr
  FSH level in blood: 0.27 mIU/mL
G11 Male 100 mg/kg sc 1/day x7, 8 hr
  FSH level in blood: 0.36 mIU/mL
G11 Male 100 mg/kg sc 1/day x7, 2 days
  FSH level in blood: 0.17 mIU/mL
G11 Male 100 mg/kg sc 1/day x7, 3 days
  FSH level in blood: 0.14 mIU/mL
